The record followed here is publication PMC12751141, “Disrupting α-Synuclein–ClpP interaction restores mitochondrial function and attenuates neuropathology in Parkinson’s disease models” (Molecular Neurodegeneration, 2025).

In one series the test system is ClpP (HEK293T cells). In words: ClpP protein level, western blot, HEK293T cells. It counts as cell-based. The settings on record: WT or A53T αSyn overexpression; 30 min pretreatment; n = 4–5 (CS1: n = 4).
A further series concerns SH-SY5Y cells. Briefly: Cytotoxicity by LDH in SH-SY5Y cells. In kind it is cell-based. The procedure:
The bimolecular fluorescence was examined 24-hour after transfection (n = 3, one-way ANOVA with Tukey’s post-hoc test, scale bar = 30 μm). (D) Quantification of the concentration (ng/ml) of extracellular αSyn monomer and oligomer, and intracellular αSyn oligomer in Tet-inducible SH-SY5Y cells that were pre-treated with TAT or CS2 peptide 30-minute before adding doxycycline (Dox) to induce αSyn expression. The concentration of αSyn species was determined by ELISA (n = 4, one-way ANOVA with Tukey’s post-hoc test; data are mean ± SEM). (E) Representative images of Mito-SOX staining in SH-SY5Y cells that were pre-treated with TAT or CS2 peptide and transfected with split Venus-αSyn vectors. Mitochondrial ROS production was determined by Mito-SOX staining after 24-hour transfection (n = 4, two-tailed Student’s t test, scale bar = 30 μm).
(G) Quantification of cytotoxicity examined by LDH assay in SH-SY5Y cells treated with indicated peptides (n = 3, one-way ANOVA with Tukey’s post-hoc test, data are mean ± SEM).

The subject of series [1] is αSyn-PFF-inoculated primary cortical neurons. Briefly: Immunofluorescence / western blot in αSyn-PFF-inoculated primary cortical neurons. The settings on record: 1 µM daily. It counts as cell-based, mouse. The protocol: Primary cortical neurons were isolated from normal E18 mouse cortex (sex undetermined) and cultured using complete culturing kit (cat#: KTC57ECX, TransnetYX Tissue). Briefly, 100,000 cells were seeded on poly-D-lysine coated glass coverslips (PDL15mm, TransnetYX Tissue) and cultured in NbActiv1 medium (NB1, TransnetYX Tissue). Neurons were treated with sonicated human α-Syn-PFF (SPR-322, StressMarq Biosciences) starting on post-seeding Day 5 till Day 14. Starting from post-seeding Day 9, TAT or CS2 peptide was added daily at 1µM. Neurons were fixed on Day 14 and subjected for experiments.
Cells were grown on coverslips, fixed with 4% paraformaldehyde for 20 min at room temperature, permeabilized with 0.1% Triton X-100 in PBS, and blocked with 2% normal goat serum. The cells were incubated with the indicated primary antibodies overnight at 4℃. After washing with PBS, the cells were incubated with Alexa Fluor 488/568 or 405/568 secondary antibody (1:500; Thermo Fisher Scientific) for 2 h at room temperature. The nuclei were counterstained with DAPI (1:10000; Sigma-Aldrich). Images of the staining were acquired using a Fluoview FV3000 confocal microscope (Olympus).
Fig. 5 CS2 treatment mitigates αSyn PFF induced neurotoxicity. (A) Representative images of ClpP, αSyn (Syn204; recognize human αSyn only) and NeuN staining in αSyn PFF-inoculated mouse primary cortical neurons that were pre-treated with TAT or CS2 peptide (scale bar = 30 μm). Quantification of ClpP and αSyn co-localization (n = 12–13 neurons/group, two-tailed Student’s t test, data are mean ± SEM). (B-C) Representative images of ClpP, αSyn (Syn204) and NeuN staining in αSyn PFF-inoculated mouse primary cortical neurons that were pre-treated with TAT or CS2 peptide (scale bar = 30 μm). Neurons were fixed in 4% PFA/4% sucrose/1%Triton-X100 to extract the soluble factions before immunostaining. […] (D-E) Representative images of β-tubulin (Tuj1) and pS129-αSyn (pS129) staining in αSyn PFF-inoculated mouse primary cortical neurons that were pre-treated with TAT or CS2 peptide (scale bar = 30 μm). […] (F-H) Representative images of PSD95, Synapsin1 (SYN1) and pS129 staining in αSyn PFF-inoculated mouse primary cortical neurons that were pre-treated with TAT or CS2 peptide (scale bar = 30 μm).
(A) Experimental schematic of TAT or CS2 peptide treatment in mouse primary cortical neurons inoculated with human αSyn PFF: Primary cortical neurons were isolated from E18 mouse cortex (see methods) and plated on coverslips (Day -5); neurons were treated with human αSyn PFF on Day 0 at 50 ng/ml; On Day 4, TAT or CS2 (1µM) was added daily till Day 9.
(B) Total protein lysates were harvested from primary neurons inoculated with αSyn-PFF after treatment with TAT or PBS, and subjected for western blot. Shown are the representative blots.
(In general: In western blotting, separated proteins are transferred to a membrane and probed.)

The next series deals with mThy1-hSNCA mice. In words: Rotarod test in mThy1-hSNCA mice. It counts as in vivo, mouse. As to conditions: 3 mg/kg/day s.c.; age of 10-month; n = 13–15 mice/group; vs TAT. The protocol: C57BL/6 N-Tg (Thy1-SNCA)15Mjff/J (JAX: 017682) breeders (C57Bl/6NJ genetic background) were purchased from Jackson Laboratories. The mice were mated, bred, and genotyped in the animal facility of Case Western Reserve University. All mice were maintained at a 12-hour light/dark cycle (on 6 am, off 6 pm). All randomization and peptide treatments in mThy1-hSNCA mice were prepared by an experimenter not associated with the behavioral and neuropathology analysis. Only male mice were used in the study. mThy1-hSNCA transgenic mice and their age-matched WT littermates were implanted with a 28-day subcutaneous osmotic pump (Alzet, Cupertino CA, Model 2004) containing either TAT control peptide or CS2 peptide, which delivered the peptides at indicated rate (1 or 3 or 10 mg/kg/day). The pump was replaced once every four weeks. All mice were sacrificed at age of 10-month for neuropathology assessment.
Mice were trained for the accelerating test on Day 1–3. On Day 5, motor coordination was assessed in TAT or CS2 treated mThy1-hSNCA transgenic mice and their age-matched wild-type littermates at age of 10-month, by measuring latency on a rotarod in an accelerated program for 300 s. Body weights of mThy1-hSNCA mice and wild-type littermates were recorded throughout the study period.
Fig. 7 CS2 treatment is protective in mThy1-hSNCA mouse model of PD. […]
(In the rotarod test animals must keep their balance on a rotating rod.)

For `CC(C)[C@H](NC(=O)CNC(=O)CNC(=O)CCCCCNC(=O)[C@H](CCCNC(=N)N)NC(=O)[C@H](CCCNC(=N)N)NC(=O)[C@H](CCCNC(=N)N)NC(=O)[C@H](CCC(N)=O)NC(=O)[C@H](CCCNC(=N)N)NC(=O)[C@H](CCCNC(=N)N)NC(=O)[C@H](CCCCN)NC(=O)[C@H](CCCCN)NC(=O)[C@H](CCCNC(=N)N)NC(=O)CNC(=O)[C@@H](N)Cc1ccc(O)cc1)C(=O)N[C@H](C(=O)N[C@H](C(=O)N[C@@H](C)C(=O)O)[C@@H](C)O)C(C)C` [CS2, TAT-C6-GGVVTA], in the series on ClpP (HEK293T cells), the “ClpP protein level, HEK293T” value is “significantly restored ClpP protein levels”. Further, the “cell death, A53T-αSyn” value in the series with SH-SY5Y cells (SH-SY5Y stably overexpressing A53T-αSyn, 2-day treatment, 12-hour serum starvation, n = 4) is given as “significantly reduced cell death”. Besides, the “cell death, WT-αSyn” value in the series with SH-SY5Y cells (SH-SY5Y stably overexpressing WT-αSyn, 2-day treatment, 12-hour serum starvation, n = 4) is “significantly reduced cell death”. Also, the “cell viability, healthy cells” value in the series with SH-SY5Y cells (healthy SH-SY5Y, 3 days, n = 3) is “did not affect cell viability”. For the same compound, in series [1] (five days), the “ClpP expression, PFF neurons” value is recorded as “rescued the expression of ClpP”. Moreover, the “ClpP / αSyn co-localization” value in series [1] (five days, n = 12–13 neurons/group) is recorded as “reduced this colocalization”. Moreover, the “insoluble αSyn, PFF neurons” value in series [1] (detergent-insoluble, n = 20-30 neurons per group) is “significantly reduced the insoluble ClpP and αSyn signal”. Further, the “insoluble ClpP” value in series [1] (detergent-insoluble, n > 30 neurons/group) is “significantly reduced the insoluble ClpP and αSyn signal”. In series [1] (n = 3–6), the “pS129-αSyn level, PFF neurons” value was “markedly reduced the level of pS129-αSyn”. Moreover, in series [1] (n > 30 areas), the Synapsin1/PSD95 colocalization result is given as “substantially restored Synapsin1/PSD95 colocalization”. Further, in the series with mThy1-hSNCA mice, the “motor coordination on rotarod (latency to fall)” value is “enhanced motor coordination”.
